Assay results from US10196442B2, “Methods of inhibiting growth of a colon cancer tumor in a subject by administering monoclonal antibodies to G protein-coupled receptor 49 (GPR49)” (Bionomics Inc., priority 2011, dated 2019).

Experiments:
colon tumor cells = test: Secondary transplant tumor formation after GPR49 mAb+irinotecan (Example 30); format: in vivo, mice; settings: 140 day follow-up
Source text: Isolated tumor cells from control or GPR49 mAb+irinotecan treated tumors from the in vivo study outlined in Example 3 were harvested, pooled, dissociated and re-implanted in a limiting dilution secondary transplant assay to measure cancer stem cell frequency. For each treatment group, 8 mice were implanted with 10, 30, 100 cells. […]

[1] = tested on: CT1 primary xenograft cells; test: CT1 primary xenograft, murine mAbs in combination with Irinotecan; format: in vivo, SCID beige female mice; settings: Irinotecan 10 mg/kg IP once per day for the first 5 days
Method: Single agent in vivo efficacy of murine antibodies 14F7.1, 18G7.1, 5B10.1, 14A8.1, 1B3.5 was evaluated in a primary colon tumor xenograft model system using CT1 primary xenograft cells. CT1 is a primary colorectal (CRC) in vivo xenograft tumor established from a fresh CRC patient tumor sample. The mutational status was determined by Ion Torrent deep sequencing to identify oncogene mutations. Approximately 5-15% of CT1 tumors express GPR49. SCID beige female mice were inoculated with CT1 tumor cells and monitored for tumor growth. Mice were randomized at day 0 into groups of 10 when mean tumor volume reached 175 mm^3. Chemotherapeutic Irinotecan was administered IP at 10 mg/kg once per day for the first 5 days. The antibodies were administered intraperitoneally (i.p.) at 15 mg/kg administered twice weekly for 4 weeks. Tumors were measured at the indicated intervals post-inoculation for total tumor volume.

GPR49 = molecular target: T1, GPR49 (Homo sapiens, UniProt O75473); test: Internalization of GPR49 in Lovo colon tumor cells (confocal); format: cell-based; settings: 10 ug/ml, 37° C., 60 min
T1 construct: endogenous in cells; host or cells: Lovo colon tumor cells
T1 sequence (O75473 22-907): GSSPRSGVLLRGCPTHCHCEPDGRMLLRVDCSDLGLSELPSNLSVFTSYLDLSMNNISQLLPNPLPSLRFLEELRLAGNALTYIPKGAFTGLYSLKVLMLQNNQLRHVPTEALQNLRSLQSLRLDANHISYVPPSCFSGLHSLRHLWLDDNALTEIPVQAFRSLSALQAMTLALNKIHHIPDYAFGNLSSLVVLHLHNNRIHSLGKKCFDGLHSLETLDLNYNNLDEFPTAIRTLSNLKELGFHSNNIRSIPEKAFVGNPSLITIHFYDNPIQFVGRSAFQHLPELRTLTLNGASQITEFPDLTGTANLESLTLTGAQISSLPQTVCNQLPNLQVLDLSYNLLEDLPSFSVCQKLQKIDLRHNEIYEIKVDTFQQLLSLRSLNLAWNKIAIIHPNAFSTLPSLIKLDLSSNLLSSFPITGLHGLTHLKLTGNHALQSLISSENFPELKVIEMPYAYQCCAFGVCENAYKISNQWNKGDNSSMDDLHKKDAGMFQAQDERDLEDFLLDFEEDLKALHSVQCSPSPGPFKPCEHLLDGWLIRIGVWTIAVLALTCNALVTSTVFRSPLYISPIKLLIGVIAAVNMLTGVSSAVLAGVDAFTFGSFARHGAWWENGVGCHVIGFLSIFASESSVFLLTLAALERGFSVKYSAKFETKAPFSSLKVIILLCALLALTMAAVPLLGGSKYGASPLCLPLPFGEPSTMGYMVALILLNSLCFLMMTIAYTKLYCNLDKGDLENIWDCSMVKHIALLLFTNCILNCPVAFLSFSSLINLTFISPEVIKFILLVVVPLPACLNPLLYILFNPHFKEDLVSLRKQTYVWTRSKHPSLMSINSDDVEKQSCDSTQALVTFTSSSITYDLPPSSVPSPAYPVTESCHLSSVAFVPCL
Method: Methods: Lovo colon tumor cells were seeded at 50,000 cells per well into 8 well chamber slides (Becton Dickinson Collagen Type 1 coated culture slides, BD BioCoat™#354630) 48 hours prior to staining procedures. Cells were routinely maintained below 20 passages. On day of staining procedures, culture media was discarded from each well and replaced with 500 ul cold incubation buffer (MEM Eagle ATCC #30-2003+1% BSA). Cells were washed 2× with this buffer for 3 min each wash. 250 ul of each mAb (76C12, 78F05 and murine 10A9.2) to be tested was then added to the appropriate well at a concentration of 10 ug/ml, diluted in incubation media, and incubated on ice for 1 hour. A human anti-human-IGF-1R antibody was used as a positive control to compare degree of internalization. Antibody 5A7 (anti-Id mAb), IDEC152 (anti-CD23 IgG1 mAb) and no antibody were used as negative controls. After the 45 minutes incubation on ice, the time zero (1=0′) slide washed 3× with 500 ul of cold wash buffer (PBS+1% BSA+2% Goat serum) for 3 min each wash (slides always kept on ice). The t=0 slide was then fixed with 500 ul […] (diluted with PBS from 16% stock; EMS #15710) for 15 minutes at room temperature. The t=0 slide was then washed again 3× with cold wash buffer for 3 minutes each wash, then left on ice. […]

Row | internalization of GPR49 (GPR49) | Compound | average size of tumors (colon tumor cells; cells from irinotecan treated tumors) | mice with tumors (colon tumor cells; cells from pre-treated tumors) | tumor inhibition by Irinotecan alone [1]
1 |  | CCc1c2c(nc3ccc(OC(=O)N4CCC(N5CCCCC5)CC4)cc13)-c1cc3c(c(=O)n1C2)COC(=O)[C@]3(O)CC [Irinotecan] | 1729 mm^3 | 5/8 | 45%
2 | did not bind or internalize | IDEC152: primatized anti-CD23 IgG1 mAb, negative control |  |  | 
